Earlier results as cited in patent US10294264B2, “Oxysterol-therapeutic agent derivative for bone healing” (Warsaw Orthopedic, Inc., priority 2017, dated 2019).
Like-named read-outs stand apart in the source and are kept apart here.

Legend:
spine fusion model [1] = conditions: rat spine fusion model
osteoprogenitor cells = conditions: in vitro
spine fusion model [2] = conditions: rabbit spine fusion model
Mesenchymal stem cells = conditions: mesenchymal stem cells treated with compound

CCCCCC[C@](C)(O)[C@H]1CC[C@H]2[C@@H]3C[C@H](O)[C@H]4C[C@@H](O)CC[C@]4(C)[C@H]3CC[C@@]21C [OXY133, (3S,5S,6S,8R,9S,10R,13S,14S,17S)-17-((S)-2-hydroxyoctan-2-yl)-10,13-dimethylhexadecahydro-1H-cyclopenta[a]phenanthrene-3,6-diol]
bone formation in vivo (spine fusion model [1]): robust bone formation | osteogenic differentiation of osteoprogenitor cells (osteoprogenitor cells): induces osteogenic differentiation | bone formation in vivo (spine fusion model [2]): robust bone formation | osteoblast differentiation (Mesenchymal stem cells): increased osteoblast differentiation
